The term MIC denotes the lowest concentration that inhibits growth of the organism.

The source of these data is DBAASP.

Structures are written as SMILES. In brackets after ≈: the same amount, converted by molar mass. Some results are limits rather than exact numbers.

Assay in all cases: ≥ marks a high value that may be exact or a test limit, other limits are often not marked, values filed in µg/mL are converted to µM
Assay [1] relates to Pachysolen tannophilus.
Assay [2] concerns Kluyveromyces marxianus.
Assay [3] has as its system Micrococcus luteus.
For assay [4], the system named is Trichoderma harzianum.
For assay [5], the system named is Candida albicans.
Assay [6] relates to Escherichia coli ATCC 25922.
Assay [7] relates to Staphylococcus aureus ATCC 6538P.
Assay [8] has as its system Aspergillus niger.
The test system of assay [9] is Pseudomonas aeruginosa ATCC 27853.
The test system of assay [10] is Staphylococcus aureus MR.
The test system of assay [11] is Staphylococcus aureus ATCC 49476.
In assay [12] the test system is Pseudomonas sp.
Assay [13] concerns Citrobacter sp.
Assay [14] relates to Klebsiella pneumoniae.
The subject of assay [15] is Escherichia coli.
Assay [16] concerns Staphylococcus aureus ATCC 25923.
Assay [17] concerns Acinetobacter sp.
Assay [18] concerns Staphylococcus aureus.
In assay [19] the test system is Pseudomonas aeruginosa.
In assay [20] the test system is Bacillus subtilis.
In assay [21] the test system is Acinetobacter baumannii ATCC 7978.
The subject of assay [22] is Klebsiella aerogenes ATCC 13048.
The test system of assay [23] is Staphylococcus aureus ATCC 29231.
Assay [24] deals with Staphylococcus aureus MW2.
Assay [25] has as its system Candida albicans ATCC 10231.
Assay [26] has as its system Enterococcus faecium E007.
The subject of assay [27] is Pseudomonas aeruginosa PA14.
Assay [28] relates to Saccharomyces cerevisiae AS2.430.

Consider `CC[C@H](C)[C@H](NC(=O)[C@H](CC(C)C)NC(=O)[C@H](CCCCN)NC(=O)[C@@H](N)CC(=O)O)C(=O)NCC(=O)N[C@@H](CO)C(=O)N[C@H]1CSSC[C@@H]2NC(=O)[C@H](Cc3cnc[nH]3)NC(=O)CNC(=O)CNC(=O)[C@H](CCCCN)NC(=O)[C@H](Cc3ccc(O)cc3)NC(=O)CNC(=O)[C@H](CCCN=C(N)N)NC(=O)[C@H](CCCN=C(N)N)NC(=O)[C@H](CCCCN)NC(=O)[C@@H]3CSSC[C@@H](C(=O)N[C@@H](CCC(=O)O)C(=O)N[C@@H](CCC(=O)O)C(=O)O)NC(=O)[C@H](Cc4c[nH]c5ccccc45)NC(=O)[C@H](CSSC[C@H](NC(=O)[C@H](CC(=O)O)NC(=O)[C@H](CO)NC(=O)[C@H]([C@@H](C)O)NC(=O)[C@H](Cc4ccc(O)cc4)NC(=O)[C@H](CC(N)=O)NC(=O)[C@H]([C@@H](C)O)NC(=O)[C@H](C)NC(=O)CNC(=O)[C@H](Cc4c[nH]c5ccccc45)NC(=O)[C@H](C(C)C)NC1=O)C(=O)N[C@@H](CC(N)=O)C(=O)N[C@@H](C)C(=O)N[C@@H](CCC(=O)O)C(=O)N3)NC(=O)[C@H](CC(N)=O)NC(=O)[C@H](C(C)C)NC(=O)[C@H](CC(N)=O)NC(=O)[C@H](Cc1c[nH]c3ccccc13)NC(=O)[C@H](Cc1ccccc1)NC(=O)[C@H](CO)NC(=O)CNC2=O` [DKLIGSCVWGATNYTSDCNAECKRRGYKGGHCGSFWNVNCWCEE], for which the MIC in assay [1] was 2.9 µM (≈ 14.3 µg/mL); in assay [2] it was 2.9 µM (≈ 14.3 µg/mL); in [3], 1.9 µM (≈ 9.39 µg/mL); in assay [4] it was 2.9 µM (≈ 14.3 µg/mL); in [5], 2.9 µM (≈ 14.3 µg/mL); in [6], 1 µM (≈ 4.94 µg/mL). Also, the minimum inhibitory concentration (MIC) in [7] was determined as 8 µM (≈ 39.5 µg/mL); in assay [8], 2.9 µM (≈ 14.3 µg/mL).

As for `CC[C@H](C)[C@H](NC(=O)[C@H](C)NC(=O)[C@H](CCCCN)NC(=O)CNC(=O)[C@H](C)NC(=O)[C@H](CO)NC(=O)[C@H](Cc1ccccc1)NC(=O)[C@H](CC(C)C)NC(=O)CNC(=O)CNC(=O)[C@@H](NC(=O)[C@@H](NC(=O)[C@H](Cc1cnc[nH]1)NC(=O)[C@H](Cc1cnc[nH]1)NC(=O)[C@@H](NC(=O)[C@@H](N)Cc1ccccc1)[C@@H](C)CC)[C@@H](C)CC)[C@@H](C)CC)C(=O)N[C@@H](Cc1cnc[nH]1)C(=O)N[C@@H](CCCN=C(N)N)C(=O)N[C@@H](CC(C)C)C(=O)N[C@H](C(=O)N[C@@H](CCCN=C(N)N)C(=O)O)[C@@H](C)CC` [FIHHIIGGLFSAGKAIHRLIR], the MIC in [9] is greater than 217 µM; in [10] it was no less than 109 µM; in assay [5] it was 54.3 µM (≈ 128 µg/mL); in [11], 27.2 µM (≈ 64 µg/mL).

As for `CC[C@H](C)[C@H](NC(=O)[C@H](CC(C)C)NC(=O)[C@H](CCCN=C(N)N)NC(=O)[C@H](CC(C)C)NC(=O)[C@H](CCCCN)NC(=O)CN)C(=O)N[C@@H](CCCCN)C(=O)N[C@@H](CCCCN)C(=O)N[C@@H](CC(C)C)C(=O)N[C@@H](Cc1c[nH]c2ccccc12)C(=O)N[C@H](C(=O)N[C@@H](CCCCN)C(=O)N[C@@H](CCCCN)C(=O)N[C@@H](Cc1c[nH]c2ccccc12)C(=O)N[C@@H](CCCCN)C(=O)N[C@@H](CCCCN)C(=O)N[C@@H](CCCCN)C(=O)NCC(=O)N[C@@H](Cc1c[nH]c2ccccc12)C(=O)N[C@@H](CCCCN)C(=O)N[C@@H](C)C(N)=O)C(C)C` [GKLRLIKKLWVKKWKKKGWKA], the MIC stood at 2 µM (≈ 5.24 µg/mL) in assay [12]; 2 µM (≈ 5.24 µg/mL) in assay [13]; 2.83 µM (≈ 7.42 µg/mL) in [14]; 2 µM (≈ 5.24 µg/mL) in [9]; 2 µM (≈ 5.24 µg/mL) in assay [15]; 2 µM (≈ 5.24 µg/mL) in assay [16]. Further, the MIC is 2 µM (≈ 5.24 µg/mL) in [17]; 2 µM (≈ 5.24 µg/mL) in assay [6]; 4 µM (≈ 10.5 µg/mL) in assay [18]; 2 µM (≈ 5.24 µg/mL) in assay [19]; 2 µM (≈ 5.24 µg/mL) in assay [20].

As for `CC[C@H](C)[C@H](NC(=O)[C@H](CCCCN)NC(=O)[C@H](CCCCN)NC(=O)[C@H](CC(C)C)NC(=O)[C@@H](NC(=O)[C@H](CCCCN)NC(=O)[C@H](Cc1c[nH]c2ccccc12)NC(=O)[C@@H](N)CC(C)C)[C@@H](C)CC)C(=O)N[C@@H](Cc1c[nH]c2ccccc12)C(=O)N[C@@H](CCCN=C(N)N)C(=O)N[C@H](C(=O)N[C@@H](CC(C)C)C(=O)N[C@@H](Cc1c[nH]c2ccccc12)C(=O)N[C@@H](CC(N)=O)C(=O)N[C@@H](Cc1c[nH]c2ccccc12)C(=O)N[C@@H](CCCN=C(N)N)C(=O)O)C(C)C` [LWKILKKIWRVLWNWR], the MIC in assay [21] is no less than 57.2 µM; in [22], no less than 57.2 µM; in [23], 14.3 µM (≈ 32 µg/mL); in assay [24], 28.6 µM (≈ 64 µg/mL); in assay [25], 28.6 µM (≈ 64 µg/mL).

Turning to `CC[C@H](C)[C@H](NC(=O)[C@H](CCCCN)NC(=O)[C@H](CCCCN)NC(=O)[C@H](Cc1c[nH]c2ccccc12)NC(=O)[C@@H](NC(=O)[C@H](CCCCN)NC(=O)[C@H](Cc1c[nH]c2ccccc12)NC(=O)[C@@H](N)CC(C)C)[C@@H](C)CC)C(=O)N[C@@H](Cc1c[nH]c2ccccc12)C(=O)N[C@@H](CCCN=C(N)N)C(=O)N[C@H](C(=O)NCC(=O)N[C@@H](Cc1c[nH]c2ccccc12)C(=O)N[C@@H](CC(N)=O)C(=O)N[C@@H](Cc1c[nH]c2ccccc12)C(=O)N[C@@H](CCCN=C(N)N)C(=O)O)C(C)C` [LWKIWKKIWRVGWNWR], the MIC was 28.4 µM (≈ 64 µg/mL) in assay [22]; no less than 56.7 µM in assay [26]; 7.09 µM (≈ 16 µg/mL) in assay [23]; 14.2 µM (≈ 32 µg/mL) in assay [25]; 14.2 µM (≈ 32 µg/mL) in assay [27].

Consider `CC(C)C[C@H](NC(=O)[C@H](CO)NC(=O)CNC(=O)[C@H](CCC(=O)O)NC(=O)[C@H](CC(C)C)NC(=O)[C@H](CCC(=O)O)NC(=O)[C@H](C)NC(=O)[C@H](CCC(N)=O)NC(=O)[C@H](CO)NC(=O)[C@H](CCC(=O)O)NC(=O)[C@H](CCC(=O)O)NC(=O)[C@@H](N)Cc1ccc(O)cc1)C(=O)N[C@@H](CCCCN)C(=O)O` [YEESQAELEGSLK], for which the MIC in assay [16] was 211 µM (≈ 313 µg/mL); in [28] it was no less than 6750 µM; in assay [6], 211 µM (≈ 313 µg/mL).
